The source made the active and inactive calls. The rule behind the calls is not given here.
What was measured:
[1] = target: T1, Cholinesterase (Equus caballus, UniProt P81908)
Description: Inhibition of equine serum BChE using butyrylthiocholine chloride as substrate preincubated for 5 mins followed by substrate addition measured after 5 mins by Ellmans method

[2] = target: Cholinesterase (Equus caballus) (UniProt P81908); experiment: Inhibition of equine serum BChE using butyrylthiocholine chloride as substrate at 10 uM preincubated for 5 mins followed by substrate addition measured after 5 mins by Ellmans method
[3] = target: Acetylcholinesterase (Electrophorus electricus, UniProt O42275); experiment: Inhibition of electric eel AChE using acetylthiocholine iodide as substrate preincubated for 5 mins followed by substrate addition measured after 5 mins by Ellmans method
Chain of Acetylcholinesterase (O42275 whole entry): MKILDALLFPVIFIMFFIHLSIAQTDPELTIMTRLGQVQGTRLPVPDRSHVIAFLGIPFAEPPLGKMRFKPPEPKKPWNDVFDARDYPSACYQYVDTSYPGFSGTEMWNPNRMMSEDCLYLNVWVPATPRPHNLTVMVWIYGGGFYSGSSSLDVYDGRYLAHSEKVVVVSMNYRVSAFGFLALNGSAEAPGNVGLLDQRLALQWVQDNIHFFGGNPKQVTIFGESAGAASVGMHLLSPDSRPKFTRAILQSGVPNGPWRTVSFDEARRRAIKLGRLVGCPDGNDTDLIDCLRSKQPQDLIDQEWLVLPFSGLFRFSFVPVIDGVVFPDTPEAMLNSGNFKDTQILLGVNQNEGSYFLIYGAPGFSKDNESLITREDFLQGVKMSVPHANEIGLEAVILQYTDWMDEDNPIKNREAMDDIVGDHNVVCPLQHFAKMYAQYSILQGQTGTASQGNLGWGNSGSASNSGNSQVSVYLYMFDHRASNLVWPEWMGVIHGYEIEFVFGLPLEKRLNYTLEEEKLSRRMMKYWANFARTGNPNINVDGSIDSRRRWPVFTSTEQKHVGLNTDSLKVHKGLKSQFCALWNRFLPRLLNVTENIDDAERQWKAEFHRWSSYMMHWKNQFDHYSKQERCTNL

[4] = target: Histamine H3 receptor (Homo sapiens, UniProt Q9Y5N1); experiment: biochemical
Chain of Histamine H3 receptor (Q9Y5N1 whole entry): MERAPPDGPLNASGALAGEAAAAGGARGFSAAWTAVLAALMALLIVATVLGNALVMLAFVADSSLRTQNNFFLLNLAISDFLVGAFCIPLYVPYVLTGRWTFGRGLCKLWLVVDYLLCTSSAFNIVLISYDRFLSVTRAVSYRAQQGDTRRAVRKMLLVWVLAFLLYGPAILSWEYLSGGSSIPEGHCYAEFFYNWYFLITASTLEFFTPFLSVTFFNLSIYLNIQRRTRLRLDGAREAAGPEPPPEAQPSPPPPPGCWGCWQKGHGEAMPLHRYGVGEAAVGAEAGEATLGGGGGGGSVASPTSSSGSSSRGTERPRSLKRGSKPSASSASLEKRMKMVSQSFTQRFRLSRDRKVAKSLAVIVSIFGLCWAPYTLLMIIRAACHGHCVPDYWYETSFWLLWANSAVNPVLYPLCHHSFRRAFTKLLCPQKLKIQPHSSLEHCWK
Description: Displacement of [3H]Nalpha-methylhistamine from human full length recombinant histamine H3 receptor expressed in HEK293 cell membranes after 90 mins by liquid scintillation counting method

[5] = target: Acetylcholinesterase (Electrophorus electricus) (UniProt O42275); experiment: Inhibition of electric eel AChE using acetylthiocholine iodide as substrate at 10 uM preincubated for 5 mins followed by substrate addition measured after 5 mins by Ellmans method
Chain of Acetylcholinesterase (Electrophorus electricus) (O42275 24-633 limits assumed): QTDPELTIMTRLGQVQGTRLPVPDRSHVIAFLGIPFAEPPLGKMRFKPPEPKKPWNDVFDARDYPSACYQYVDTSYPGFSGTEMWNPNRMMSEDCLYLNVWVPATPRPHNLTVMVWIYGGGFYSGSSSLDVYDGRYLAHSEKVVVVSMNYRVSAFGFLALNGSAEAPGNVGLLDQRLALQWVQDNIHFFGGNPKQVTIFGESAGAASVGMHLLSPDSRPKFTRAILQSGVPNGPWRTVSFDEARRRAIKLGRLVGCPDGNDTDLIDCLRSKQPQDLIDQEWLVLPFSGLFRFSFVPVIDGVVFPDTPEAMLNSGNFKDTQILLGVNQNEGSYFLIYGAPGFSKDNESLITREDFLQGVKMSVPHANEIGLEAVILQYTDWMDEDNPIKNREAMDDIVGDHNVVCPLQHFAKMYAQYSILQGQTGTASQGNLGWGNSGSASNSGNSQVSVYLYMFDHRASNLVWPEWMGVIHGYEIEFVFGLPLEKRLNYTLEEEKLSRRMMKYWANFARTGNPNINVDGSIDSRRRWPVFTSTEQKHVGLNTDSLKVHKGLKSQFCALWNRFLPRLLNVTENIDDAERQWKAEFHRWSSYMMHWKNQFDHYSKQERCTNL

[6] = target: Acetylcholinesterase (Electrophorus electricus) (UniProt O42275); experiment: Mixed-type inhibition of electric eel AChE using acetylthiocholine iodide as substrate at 5 to 20 uM by Lineweaver-Burk double reciprocal plot analysis
[7] = target: Cholinesterase (Equus caballus) (UniProt P81908); experiment: Non-competitive inhibition of equine serum BChE using butyrylthiocholine chloride as substrate at 2 to 5 uM by Lineweaver-Burk double reciprocal plot analysis
[8] = target: Acetylcholinesterase (Electrophorus electricus) (UniProt O42275); experiment: Mixed-type inhibition of electric eel AChE using acetylthiocholine iodide as substrate at 2 to 10 uM by Lineweaver-Burk double reciprocal plot analysis
[9] = target: T1, Cholinesterase; experiment: Inhibition of equine serum BChE using butyrylthiocholine chloride as substrate preincubated for 4.5 mins followed by substrate addition measured after 2.5 mins by Ellmans method

Chain of Cholinesterase (Equus caballus) (P81908 whole entry): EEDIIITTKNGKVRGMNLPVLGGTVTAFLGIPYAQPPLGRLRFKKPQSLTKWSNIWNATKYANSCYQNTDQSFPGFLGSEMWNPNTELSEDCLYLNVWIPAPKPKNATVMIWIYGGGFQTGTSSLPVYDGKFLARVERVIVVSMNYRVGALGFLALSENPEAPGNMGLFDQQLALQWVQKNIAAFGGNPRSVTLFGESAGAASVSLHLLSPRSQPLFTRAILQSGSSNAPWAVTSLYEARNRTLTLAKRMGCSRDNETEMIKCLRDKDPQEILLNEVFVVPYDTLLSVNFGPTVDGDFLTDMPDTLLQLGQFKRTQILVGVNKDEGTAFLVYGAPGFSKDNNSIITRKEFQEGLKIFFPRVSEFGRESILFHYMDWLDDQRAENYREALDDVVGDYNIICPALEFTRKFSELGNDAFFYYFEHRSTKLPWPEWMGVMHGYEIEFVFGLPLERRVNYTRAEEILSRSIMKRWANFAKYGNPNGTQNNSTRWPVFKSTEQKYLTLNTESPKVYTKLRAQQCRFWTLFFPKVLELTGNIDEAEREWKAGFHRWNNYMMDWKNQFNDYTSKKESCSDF
T1 sequence (P81908 whole entry): as above

SMILES	IC50 [1] [µM]	inhibition [2] [%]	IC50 [3] [µM]	other results
CC1CCCN(CCCCCCOc2cccc(Cl)c2)C1 (stereo not given)	> 10	< 50	6.22	
Clc1cccc(OCCCCCCN2CCCCCC2)c1	2.43		5.4	
Clc1cccc(OCCCCCCN2CCCCC2)c1	> 10	< 50	18.6	
CC1CCN(CCCCCCCOc2ccc(Cl)cc2)CC1	2.92		2.74	
CC1CCCN(CCCCCCCOc2cccc(Cl)c2)C1 (stereo not given)	5.15		3.8	Ki [4]: 0.446 µM
Clc1ccc(OCCCCCN2CCCCCC2)cc1	3.45		> 10	inhibition [5]: < 50%
CC1CCCN(CCCCCCCOc2ccc(Cl)cc2)C1 (stereo not given)	> 10	< 50	4.51	inhibition [6]: Active
CC1CCCN(CCCCCOc2ccc(Cl)cc2)C1 (stereo not given)	> 10	< 50	23.6	
Clc1ccc(OCCCCCCCN2CCCCCC2)cc1	1.64		1.93	inhibition [7]: Active; inhibition [8]: Active
c1cc2c(cc1OCCCN1CCCCC1)CN1CCCC1=N2				IC50 [9]: 8.2 µM
Clc1cccc(OCCCCCCCN2CCCCC2)c1	4.75		5.33	
CC1CCN(CCCCCOc2ccc(Cl)cc2)CC1	> 10	< 50	> 10	inhibition [5]: < 50%
Clc1ccc(OCCCOCCCN2CCCCCC2)cc1	4.97		7.91	
CC1CCN(CCCCCCOc2cccc(Cl)c2)CC1	3.53		7.31	
Clc1ccc(OCCCCCCN2CCCCCC2)cc1	3.74		3.88	
Clc1ccc(OCCCCCN2CCCCC2)cc1	> 10	< 50	> 10	inhibition [5]: < 50%
Clc1ccc(OCCCCCCN2CCCCC2)cc1	> 10	< 50	> 10	inhibition [5]: < 50%
Clc1cccc(OCCCCCCCN2CCCCCC2)c1	0.9		2.42	
CC1CCCN(CCCCCCOc2ccc(Cl)cc2)C1 (stereo not given)	> 10	< 50	4.8	
Clc1ccc(OCCCCCCCN2CCCCC2)cc1	> 10	< 50	3.94	
CC1CCN(CCCCCCOc2ccc(Cl)cc2)CC1	5.43		8.11	
CC1CCN(CCCCCCCOc2cccc(Cl)c2)CC1	1.66		4.9	

Source: ChEMBL document CHEMBL4425171, “Cholinesterase inhibitory activity of chlorophenoxy derivatives-Histamine H3 receptor ligands” (Bioorg Med Chem Lett, 2016)
